Laboratory results: patent publication US11739068B2, “Polymorphs of N-[(3-fluoro-4-methoxypyridin-2-yl)methyl]-3-(methoxymethyl)-1-({4-[(2-oxopyridin-1-yl)methyl]phenyl}methyl)pyrazole-4-carboxamide and salts thereof” (KALVISTA PHARMACEUTICALS LIMITED, priority 2016, dated 2023)

Key:
Assay type in all cases: physicochemical
[1] = Gravimetric Vapour Sorption (GVS)
Experimental: Gravimetric Vapour Sorption (GVS) data were collected using the following method: Approximately 10 mg of sample was placed into a wire-mesh vapour sorption balance pan and loaded into an ‘IgaSorp’ vapour sorption balance (Hiden Analytical Instruments). The sample was then dried by maintaining a 0% humidity environment until no further weight change was recorded. Subsequently, the sample was then subjected to a ramping profile from 0-90% RH at 10% RH increments, maintaining the sample at each step until equilibration had been attained (99% step completion). Upon reaching equilibration, the % RH within the apparatus was ramped to the next step and the equilibration procedure repeated. After completion of the sorption cycle, the sample was then dried using the same procedure. The weight change during the sorption/desorption cycles were then monitored, allowing for the hygroscopic nature of the sample to be determined.

[2] = Visual aqueous solubility
Experimental: Form 1 (10 mg) was weighed into a glass vial and water was added in 100 μL portions up to 3 mL then 1 mL portions thereafter. Solubility was assessed visually following a brief period of equilibration.
Form 18 (10 mg) was weighed into a glass vial and water was added in 100 μL portions up to 3 mL then 1 mL portions thereafter. Solubility was assessed visually following a brief period of equilibration.
Form 8 (10 mg) was weighed into a glass vial and water was added in 100 μL portions up to 3 mL then 1 mL portions thereafter. Solubility was assessed visually following a brief period of equilibration.
Form 15 (10 mg) was weighed into a glass vial and water was added in 100 μL portions up to 3 mL then 1 mL portions thereafter. Solubility was assessed visually following a brief period of equilibration.
Form 16 (10 mg) was weighed into a glass vial and water was added in 100 μL portions up to 3 mL then 1 mL portions thereafter. Solubility was assessed visually following a brief period of equilibration.

[3] = Slurry studies; details: 72 hrs; for XRPD of solid after slurry versus starting form: 90/10 IPA/water, ambient temperature
Experimental: Form 1 (20 mg) was suspended in 90/10 IPA/water (200 μL or […]) and shaken at ambient temperature for 72 hrs. The supernatant was evaporated rather than filtered due to the small volume and the resulting solid was examined by XRPD (FIG. 6).
The supernatant was evaporated rather than filtered due to the small volume and the resulting solid was examined by XRPD (FIG. 28).
The supernatant was evaporated rather than filtered due to the small volume and the resulting solid was examined by XRPD (FIG. 34).
The supernatant was evaporated rather than filtered due to the small volume and the resulting solid was examined by XRPD (FIG. 40).

Molecule	%-Wt (dry basis) ([1]; adsorption, about 0 %-RH)	%-Wt (dry basis) ([1]; adsorption, about 10 %-RH)	%-Wt (dry basis) ([1]; adsorption, about 20 %-RH)	%-Wt (dry basis) ([1]; adsorption, about 30 %-RH)	%-Wt (dry basis) ([1]; adsorption, about 40 %-RH)	%-Wt (dry basis) ([1]; adsorption, about 50 %-RH)	%-Wt (dry basis) ([1]; adsorption, about 60 %-RH)	%-Wt (dry basis) ([1]; adsorption, about 70 %-RH)	%-Wt (dry basis) ([1]; adsorption, about 80 %-RH)	%-Wt (dry basis) ([1]; adsorption, about 90 %-RH)	%-Wt (dry basis) ([1]; desorption, about 0 %-RH)	%-Wt (dry basis) ([1]; desorption, about 5 %-RH)	%-Wt (dry basis) ([1]; desorption, about 15 %-RH)	%-Wt (dry basis) ([1]; desorption, about 25 %-RH)	%-Wt (dry basis) ([1]; desorption, about 35 %-RH)	%-Wt (dry basis) ([1]; desorption, about 45 %-RH)	%-Wt (dry basis) ([1]; desorption, about 55 %-RH)	%-Wt (dry basis) ([1]; desorption, about 65 %-RH)	%-Wt (dry basis) ([1]; desorption, about 75 %-RH)	%-Wt (dry basis) ([1]; desorption, about 85 %-RH)	also measured
N-[(3-fluoro-4-methoxypyridin-2-yl)methyl]-3-(methoxymethyl)-1-({4-[(2-oxopyridin-1-yl)methyl]phenyl}methyl)pyrazole-4-carboxamide edisylate [Form 16]	1.612%	2.367%	2.626%	2.834%	3.045%	3.351%	7.516%	9.935%	15.98%	94.26%	0.00047%	2.866%	4.495%	6.541%	9.564%	12.94%	17.21%	23.22%	33.16%	57.4%	
N-[(3-fluoro-4-methoxypyridin-2-yl)methyl]-3-(methoxymethyl)-1-({4-[(2-oxopyridin-1-yl)methyl]phenyl}methyl)pyrazole-4-carboxamide edisylate [Form 15]																					Aqueous solubility ([2]; water, assessed visually): ~100 mg/mL; Aqueous solubility, repeat using less water ([2]; water, dissolved in 0.05 mL): > 200 mg/mL; Result of water slurry ([3]; 20 mg in deionised water (200 μL)): complete dissolution of the sample; XRPD of solid after slurry versus starting form [3]: no differences in X-ray pattern
COCc1nn(Cc2ccc(Cn3ccccc3=O)cc2)cc1C(=O)NCc1nccc(OC)c1F.O=S(=O)(O)O [Form 8, N-[(3-fluoro-4-methoxypyridin-2-yl)methyl]-3-(methoxymethyl)-1-({4-[(2-oxopyridin-1-yl)methyl]phenyl}methyl)pyrazole-4-carboxamide sulfate]	0.03946%	0.4404%	0.6163%	0.7771%	0.6383%	0.8735%	1.214%	2.0577%	3.99%	14.16%	0.000552%	0.07837%	0.2289%	0.3947%	0.2459%	0.5639%	0.9496%	1.643%	3.436%	6.295%	Aqueous solubility (in words) [2]: excellent aqueous solubility; solubility ([2]; water, thermodynamic from solid): ~100 mg/mL; Increase in water content by GVS (hygroscopicity, in words) ([1]; up to 70% relative humidity): only a relatively gradual increase in water content; XRPD of solid after slurry versus starting form [3]: no change in the X-ray pattern
COCc1nn(Cc2ccc(Cn3ccccc3=O)cc2)cc1C(=O)NCc1nccc(OC)c1F.Cl [Form 18, N-[(3-fluoro-4-methoxypyridin-2-yl)methyl]-3-(methoxymethyl)-1-({4-[(2-oxopyridin-1-yl)methyl]phenyl}methyl)pyrazole-4-carboxamide hydrochloride]	0.000338%	0.2364%	0.3723%	0.5037%	0.6618%	0.9246%	9.109%	9.603%	13.9262%	66.83%	0.35%	2.227%	3.448%	4.993%	7.125%	9.624%	12.7659%	17.34%	24.5%	40.16%	XRPD of solid after slurry versus starting form [3]: different to that of Form 18
